According to ChEMBL document CHEMBL5042477, “Potent Cyclic Peptide Inhibitors of FXIIa Discovered by mRNA Display with Genetic Code Reprogramming” (J Med Chem, 2021):
Where a SMILES comes first, the peptide text is derived from it. Bridges are numbered along the chain shown (N, C = ends).

Molecular target: T1, Coagulation factor XII (Homo sapiens, UniProt P00748)
T1 sequence (P00748 whole entry): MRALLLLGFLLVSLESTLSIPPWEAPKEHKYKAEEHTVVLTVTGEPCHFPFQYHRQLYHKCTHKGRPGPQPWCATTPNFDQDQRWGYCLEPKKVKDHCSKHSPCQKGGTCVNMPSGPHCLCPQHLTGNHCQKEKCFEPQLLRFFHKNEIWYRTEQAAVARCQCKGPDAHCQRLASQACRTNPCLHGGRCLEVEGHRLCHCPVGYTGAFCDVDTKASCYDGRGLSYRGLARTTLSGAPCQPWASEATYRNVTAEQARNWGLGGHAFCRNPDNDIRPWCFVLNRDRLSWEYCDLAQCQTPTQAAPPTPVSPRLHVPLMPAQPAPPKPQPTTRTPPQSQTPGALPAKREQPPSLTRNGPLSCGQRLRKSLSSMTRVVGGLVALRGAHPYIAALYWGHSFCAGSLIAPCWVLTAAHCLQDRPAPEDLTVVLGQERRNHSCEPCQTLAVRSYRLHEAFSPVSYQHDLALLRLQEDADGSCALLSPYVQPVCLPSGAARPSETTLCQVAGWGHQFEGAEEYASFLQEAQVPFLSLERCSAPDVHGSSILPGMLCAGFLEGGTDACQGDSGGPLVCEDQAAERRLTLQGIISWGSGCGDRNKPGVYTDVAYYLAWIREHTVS
Experiment: Inhibition of human factor 12a using H-D-Pro-Phe-Arg-p-nitroanilide as chromogenic substrate assessed as liberation of p-nitroaniline measured every 5 mins for 60 min by multimode plate reader analysis

Compound	IC50
CC(C)C[C@@H]1NC(=O)[C@H](C)NC(=O)CSC[C@@H](C(N)=O)NC(=O)CNC(=O)CNC(=O)[C@H](CCCNC(=N)N)NC(=O)[C@H](CC(=O)O)NC(=O)[C@H](CCCCN)NC(=O)[C@@H]2CCCN2C(=O)[C@H](CCCNC(=N)N)NC(=O)[C@H](Cc2ccccc2)NC(=O)[C@H](CCCNC(=N)N)NC1=O ({CH2CO}-ALRFRPKDRGGC-NH2; thioether N-12)	500 µM
CC(C)C[C@@H]1NC(=O)[C@H](C)NC(=O)CSC[C@@H](C(N)=O)NC(=O)CNC(=O)CNC(=O)[C@H](CCC(N)=O)NC(=O)[C@H](CC(N)=O)NC(=O)[C@H]([C@@H](C)O)NC(=O)[C@@H]2CCCN2C(=O)[C@H](CCCCN)NC(=O)[C@H](CC(C)C)NC(=O)[C@H](CCCNC(=N)N)NC1=O ({CH2CO}-ALRLKPTNQGGC-NH2; thioether N-12)	290 µM
CC(C)C[C@@H]1NC(=O)[C@H](C(C)C)NC(=O)CSC[C@@H](C(N)=O)NC(=O)CNC(=O)CNC(=O)[C@H](CCCNC(=N)N)NC(=O)[C@H](CC(=O)O)NC(=O)[C@H](CCCCN)NC(=O)[C@@H]2CCCN2C(=O)[C@H](CCCNC(=N)N)NC(=O)[C@H](Cc2ccccc2)NC(=O)[C@H](CCCNC(=N)N)NC1=O ({CH2CO}-VLRFRPKDRGGC-NH2; thioether N-12)	210 µM
C[C@@H]1NC(=O)[C@H](Cc2ccc(O)cc2)NC(=O)CSC[C@@H](C(N)=O)NC(=O)CNC(=O)CNC(=O)[C@H](CCCNC(=N)N)NC(=O)[C@H](CC(=O)O)NC(=O)[C@H](CCCCN)NC(=O)[C@@H]2CCCN2C(=O)[C@H](CCCNC(=N)N)NC(=O)[C@H](Cc2ccccc2)NC(=O)[C@H](CCCNC(=N)N)NC1=O ({CH2CO}-YARFRPKDRGGC-NH2; thioether N-12)	290 µM
CC(C)C[C@@H]1NC(=O)[C@H](CCCNC(=N)N)NC(=O)[C@H](C)NC(=O)[C@H](Cc2ccc(O)cc2)NC(=O)CSC[C@@H](C(N)=O)NC(=O)CNC(=O)CNC(=O)[C@H](CCC(N)=O)NC(=O)[C@H](CC(N)=O)NC(=O)[C@H]([C@@H](C)O)NC(=O)[C@@H]2CCCN2C(=O)[C@H](CCCCN)NC1=O ({CH2CO}-YARLKPTNQGGC-NH2; thioether N-12)	410 µM
CC(C)C[C@@H]1NC(=O)[C@H](C)NC(=O)[C@H](CC(C)C)NC(=O)[C@H](Cc2ccc(O)cc2)NC(=O)CSC[C@@H](C(N)=O)NC(=O)CNC(=O)CNC(=O)[C@H](CCC(N)=O)NC(=O)[C@H](CC(N)=O)NC(=O)[C@H]([C@@H](C)O)NC(=O)[C@@H]2CCCN2C(=O)[C@H](CCCCN)NC1=O ({CH2CO}-YLALKPTNQGGC-NH2; thioether N-12)	850 µM

Molecules with a lower IC50, results first:

IC50	Compound
3.8 µM	CC(C)C[C@@H]1NC(=O)[C@H]([C@@H](C)O)NC(=O)[C@H](Cc2ccccc2)NC(=O)[C@@H](CCCNC(=N)N)NC(=O)[C@@H](CC(C)C)NC(=O)[C@@H](Cc2ccc(O)cc2)NC(=O)CSC[C@@H](C(N)=O)NC1=O
0.48 µM	CC(C)C[C@@H]1NC(=O)[C@H](Cc2ccccc2)NC(=O)CSC[C@@H](C(N)=O)NC(=O)CNC(=O)CNC(=O)[C@H](CCCNC(=N)N)NC(=O)[C@H](CC(=O)O)NC(=O)[C@H](CCCCN)NC(=O)[C@@H]2CCCN2C(=O)[C@H](CCCNC(=N)N)NC(=O)[C@H](Cc2ccccc2)NC(=O)[C@H](CCCNC(=N)N)NC1=O ({CH2CO}-FLRFRPKDRGGC-NH2; thioether N-12)
0.53 µM	COc1ccc(C[C@@H]2NC(=O)CSC[C@@H](C(N)=O)NC(=O)CNC(=O)CNC(=O)[C@H](CCCNC(=N)N)NC(=O)[C@H](CC(=O)O)NC(=O)[C@H](CCCCN)NC(=O)[C@@H]3CCCN3C(=O)[C@H](CCCNC(=N)N)NC(=O)[C@H](Cc3ccccc3)NC(=O)[C@H](CCCNC(=N)N)NC(=O)[C@H](CC(C)C)NC2=O)cc1 ({CH2CO}-Y(Me)LRFRPKDRGGC-NH2; thioether N-12)
110 µM	CC(C)C[C@@H]1NC(=O)[C@H](Cc2ccc(O)cc2)NC(=O)CSC[C@@H](C(N)=O)NC(=O)CNC(=O)CNC(=O)[C@H](CCCNC(=N)N)NC(=O)[C@H](CC(=O)O)NC(=O)[C@H](CCCCN)NC(=O)[C@@H]2CCCN2C(=O)[C@H](CCCNC(=N)N)NC(=O)[C@H](Cc2ccccc2)NC(=O)[C@H](C)NC1=O ({CH2CO}-YLAFRPKDRGGC-NH2; thioether N-12)
